Laboratory results as given in patent US20250332173A1, “COMPOUNDS AND METHODS FOR MODULATING NUCLEIC ACID SPLICING” (REMIX THERAPEUTICS INC., priority 2021, published 2025).
Read-outs that look alike come from different tables or passages of the source.

Assays:
Format in all cases: cell-based, human
HTT = assay: HiBiT protein abundance assay, HTT HiBiT K562 cell line; details: HiBiT K562 cell line, 24 hours, top dose 10 μM; read-out: Effect on protein abundance, HTT (IC50 category)
Outline: (§1)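 Tagged-protein abundance measured by split-NanoBiT luminescence after lysis, following 24 h compound exposure (37° C; 10 μM top, 3-fold, 10 points; DMSO ≤0.25%) of HiBiT knock-in K562 cells. Percent response vs DMSO and unmodified-cell controls; 4-parameter logistic interpolation at 50% gave IC50.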

MYB = assay: HiBiT protein abundance assay, MYB HiBiT K562 cell line; details: HiBiT K562 cell line, 24 hours, top dose 10 μM; read-out: Effect on protein abundance, MYB (IC50 category)
Outline: as §1

HTT mRNA = assay: RT-qPCR splicing assay, HTT canonical junction (CJ) and alternative junction (AJ) mRNA; details: Homo sapiens; for AC50: increase in HTT alternative junction (AJ) mRNA, read-out: HTT AJ AC50
Outline: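 Read-out is one-step RT-qPCR on cell lysates detecting the exon-exon junction of each isoform, normalized to a housekeeping gene (PPIA in A673, GAPDH or GUSB in K562).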

[1] = decrease in HTT canonical junction (CJ) mRNA, RT-qPCR, read-out: HTT CJ IC50
[2] = Table 5 panel, canonical junction qPCR, compound concentration having 50% response in CJ decrease, read-out: HTT IC50 (decrease in CJ mRNA levels)

Row | Structure (SMILES) | IC50 (HTT) [nM] | IC50 (MYB) [nM] | IC50 (HTT mRNA; [1]) [nM] | IC50 (HTT mRNA; [2]) [nM] | AC50 (HTT mRNA; RT-qPCR) [nM]
1 | Cc1cn2nc(-c3cc(O)c4c(=O)n(C5CCNC5)cc(C)c4c3)cc(C)c2n1 (centres unmarked) [Compound 462] | 1000 to 10000 | 100 to 1000 | 1000 to 10000 | 1000 to 10000 | 1000 to 10000
2 | Cc1cn2nc(-c3cc(O)c4c(=O)n(C5CCNC5)ccc4c3)cc(C)c2n1 (centres unmarked) [Compound 432, 6-{2,8-dimethylimidazo[1,2-b]pyridazin-6-yl}-8-hydroxy-2-(pyrrolidin-3-yl)isoquinolin-1-one] | 1000 to 10000 | < 100 | 1000 to 10000 | 1000 to 10000 | 1000 to 10000
3 | Cc1cn2nc(-c3ccc4c(=O)n([C@H]5CCNC6(CC6)C5)ncc4c3)cc(C)c2n1 [Compound 369, 2-[(7S)-4-azaspiro[2.5]octan-7-yl]-6-{2,8-dimethylimidazo[1,2-b]pyridazin-6-yl}phthalazin-1-one] | 100 to 1000 | 1000 to 10000 | < 100 | < 100 | < 100
4 | Cc1cn2cc(-c3cc(F)c4c(=O)n(C5CCNC6(CC6)C5)ccc4c3)cc(Cl)c2n1 (centres unmarked) [Compound 413, 2-{4-azaspiro[2.5]octan-7-yl}-6-{8-chloro-2-methylimidazo[1,2-a]pyridin-6-yl}-8-fluoroisoquinolin-1-one] | < 100 | < 100 | < 100 | < 100 | < 100
5 | Cn1cc2cc(-n3cnc4cc(C5CCNCC5)ccc4c3=O)ccc2n1 [Compound 172] | > 10000 | > 10000 | > 10000 | > 10000 | > 10000
6 | Cc1cn2nc(-c3cc(F)c4c(=O)n(C5CCNC5)ccc4c3)cc(C)c2n1 (stereo in doubt) [Compound 392, (S)-6-(2,8-dimethylimidazo[1,2-b]pyridazin-6-yl)-8-fluoro-2-(pyrrolidin-3-yl)isoquinolin-1(2H)-one] | 1000 to 10000 | 100 to 1000 | 1000 to 10000 | 1000 to 10000 | 1000 to 10000
7 | COc1cc2c(=O)n(C3CCNCC3)ccc2cc1-c1cc(C)c2nc(C)cn2n1 [Compound 449, 6-{2,8-dimethylimidazo[1,2-b]pyridazin-6-yl}-7-methoxy-2-(piperidin-4-yl)isoquinolin-1-one] | > 10000 | > 10000 | > 10000 | > 10000 | > 10000
8 | Cc1cc(-c2ccc3c(=O)n([C@@H]4CCNC[C@H]4F)ncc3c2)cc2cn(C)nc12 [Compound 378] | 1000 to 10000 | 1000 to 10000 | 1000 to 10000 | 1000 to 10000 | 1000 to 10000
9 | Cc1cn2nc(-c3cc(C#N)c4c(=O)n(C5CCNC6(CC6)C5)ccc4c3)cc(C)c2n1 (centres unmarked) [Compound 387] | < 100 | < 100 | < 100 | < 100 | < 100
10 | Cc1cn2cc(-c3cc(O)c4c(=O)n(C5CCNC5)ccc4c3)cc(C#N)c2n1 (centres unmarked) [Compound 433, 6-(8-hydroxy-1-oxo-2-(pyrrolidin-3-yl)-1,2-dihydroisoquinolin-6-yl)-2-methylimidazo[1,2-a]pyridine-8-carbonitrile] | > 10000 | 1000 to 10000 | > 10000 | > 10000 | > 10000
11 | Cc1c(O)c(-c2cc(F)c3c(=O)n(C4CCNC5(CC5)C4)ccc3c2)cc2cn(C)nc12 (centres unmarked) [Compound 419, 2-{4-azaspiro[2.5]octan-7-yl}-8-fluoro-6-(6-hydroxy-2,7-dimethylindazol-5-yl)isoquinolin-1-one] | > 10000 | 1000 to 10000 | > 10000 | > 10000 | > 10000
12 | Cc1cc(-c2ccc3c(=O)n(C4CCNC5(COC5)C4)cnc3c2)cc2cn(C)nc12 (centres unmarked) [Compound 375] | 1000 to 10000 | 1000 to 10000 | 1000 to 10000 | 1000 to 10000 | 1000 to 10000
13 | Cc1cn2nc(-c3ccc4c(=O)n([C@@H]5CCNC6(CC6)C5)ncc4c3)cc(C)c2n1 (stereo in doubt) [Compound 368, 2-[(7R)-4-azaspiro[2.5]octan-7-yl]-6-{2,8-dimethylimidazo[1,2-b]pyridazin-6-yl}phthalazin-1-one] | < 100 | < 100 | < 100 | < 100 | < 100
14 | Cc1cn2cc(-c3cc(F)c4c(=O)n(C5CCNC6(CC6)C5)ccc4c3)ncc2n1 (centres unmarked) [Compound 428, 8-fluoro-6-(2-methylimidazo[1,2-a]pyrazin-6-yl)-2-(4-azaspiro[2.5]octan-7-yl)isoquinolin-1(2H)-one] | 100 to 1000 | 100 to 1000 | 1000 to 10000 | 1000 to 10000 | 1000 to 10000
15 | Cc1cn2nc(-c3cc(F)c4c(=O)n(C5CCNC6(CC6)C5)ccc4c3)cc(C)c2n1 (centres unmarked) [Compound 380, 6-(2,8-dimethylimidazo[1,2-b]pyridazin-6-yl)-8-fluoro-2-(4-azaspiro[2.5]octan-7-yl)isoquinolin-1(2H)-one] | < 100 | < 100 | < 100 | < 100 | < 100
16 | Cn1cc2c(n1)CCN(c1ccc3c(=O)n(C4CCNCC4)ccc3c1)C2 [Compound 509, 6-{2-methyl-4H,6H,7H-pyrazolo[4,3-c]pyridin-5-yl}-2-(piperidin-4-yl)isoquinolin-1-one] | > 10000 | > 10000 | > 10000 | > 10000 | > 10000
17 | Cc1cn2cc(-c3ccc4c(=O)n(C5CCNC6(CC6)C5)ncc4c3)cc(Cl)c2n1 (centres unmarked) [Compound 510] | 100 to 1000 | 1000 to 10000 | 1000 to 10000 | 100 to 1000 | 100 to 1000
18 | Cc1cn2cc(-c3cc(F)c4c(=O)n(C5CCNC6(CC6)C5)ccc4c3)c(O)c(C)c2n1 (centres unmarked) [Compound 421, 2-{4-azaspiro[2.5]octan-7-yl}-8-fluoro-6-{7-hydroxy-2,8-dimethylimidazo[1,2-a]pyridin-6-yl}isoquinolin-1-one] | > 10000 | > 10000 | > 10000 | > 10000 | > 10000
19 | Cc1cc(-c2ccc3c(=O)n(C4CCNCC4)cnc3c2)cc2cn(C)nc12 [Compound 174] | 100 to 1000 | < 100 | 100 to 1000 | 100 to 1000 | 100 to 1000

Continued, in another order:

Row | IC50 (HTT) [nM] | IC50 (MYB) [nM] | IC50 (HTT mRNA; [1]) [nM] | IC50 (HTT mRNA; [2]) [nM] | Structure (SMILES) | AC50 (HTT mRNA; RT-qPCR) [nM]
20 | 100 to 1000 | 100 to 1000 | 100 to 1000 | 100 to 1000 | Cc1cn2nc(-c3ccc4c(=O)n([C@@H]5CCNC[C@H]5F)ncc4c3)cc(C)c2n1 [Compound 379] | 100 to 1000
21 | < 100 | < 100 | < 100 | < 100 | Cn1cc2cc(-c3cc(F)c4c(=O)n(C5CCNC6(CC6)C5)ccc4c3)cc(F)c2n1 (centres unmarked) [Compound 412] | < 100
22 | > 10000 | 1000 to 10000 | > 10000 | > 10000 | Cc1nc2c(F)cc(-c3cc(F)c4c(=O)n(C5CCNC6(CC6)C5)ccc4c3)cc2n1C (centres unmarked) [Compound 430, 8-fluoro-6-(4-fluoro-1,2-dimethyl-1H-benzo[d]imidazol-6-yl)-2-(4-azaspiro[2.5]octan-7-yl)isoquinolin-1(2H)-one] | > 10000
23 | > 10000 | > 10000 | > 10000 | > 10000 | Cc1cn2cc(-c3cc(N)c4c(=O)n(C5CCNCC5)cnc4c3)cc(C#N)c2n1 [Compound 364, 6-[5-amino-4-oxo-3-(piperidin-4-yl)quinazolin-7-yl]-2-methylimidazo[1,2-a]pyridine-8-carbonitrile] | > 10000
24 | 100 to 1000 | 100 to 1000 | 100 to 1000 | 100 to 1000 | Cc1cn2cc(-c3cc(F)c4c(=O)n(C5CCOC5)cnc4c3)cc(C#N)c2n1 (stereo in doubt) [Compound 500, (S)-6-(5-fluoro-4-oxo-3-(tetrahydrofuran-3-yl)-3,4-dihydroquinazolin-7-yl)-2-methylimidazo[1,2-a]pyridine-8-carbonitrile] | 100 to 1000
25 | < 100 | < 100 | < 100 | < 100 | Cc1cn2cc(-c3cc(F)c4c(=O)n(C5CCNCC5)ccc4c3)cc(F)c2n1 [Compound 370] | < 100
26 | 100 to 1000 | 100 to 1000 | 100 to 1000 | 100 to 1000 | Cc1cn2cc(-c3cc(F)c4c(=O)n(C5CCOCC5)cnc4c3)cc(C#N)c2n1 [Compound 367, 6-[5-fluoro-3-(oxan-4-yl)-4-oxoquinazolin-7-yl]-2-methylimidazo[1,2-a]pyridine-8-carbonitrile] | 100 to 1000
27 | < 100 | < 100 | 100 to 1000 | < 100 | Cc1cn2nc(-c3ccc4c(=O)n(C5CCNCC5)cc(C)c4c3)cc(C)c2n1 [Compound 381, 6-{2,8-dimethylimidazo[1,2-b]pyridazin-6-yl}-4-methyl-2-(piperidin-4-yl)isoquinolin-1-one] | < 100
28 | < 100 | < 100 | < 100 | < 100 | Cc1cn2nc(-c3ccc4c(=O)n(C5CCNC6(CC6)C5)ccc4c3)cc(C)c2n1 (centres unmarked) [Compound 384] | < 100
